Reference: patent US20030104473A1, “Common ligand mimics: benzimidazoles” (priority 2001, published 2003)

Assays:
[1] = biological target: T1, lactate dehydrogenase (LDH) (Oryctolagus cuniculus, UniProt P13491); experiment: LDH kinetic assay, spectrophotometric oxidation of NADH at 340 nm; assay type: biochemical, Rabbit Muscle; conditions: Example 13 oxidoreductase panel (FIG. 7)
T1 construct: 10 μl of LDH from Rabbit Muscle; from tissue; host or cells: rabbit muscle
Method: For LDH analysis, the compounds were screened using a kinetic protocol that spectrophotometrically evaluates oxidation of NADH.
Stock solutions of each of the reagents were prepared in the following concentrations. Dilutions of the stock solutions were prepared prior to running the assay in the concentrations indicated below.
The LDH reaction was monitored at 340 nm prior to and after addition of the inhibitor to detect background reaction with the inhibitor. Solutions of 100 μl of the inhibitors in DMSO were prepared to provide a final DMSO concentration of 5% of the total assay volume. These solutions were incubated for 6 minutes at 25° C. in a 990 μl of a solution containing 0.1 M HEPES, pH 7.4, 10 μM NADH, and 2.5 mM of pyruvate. The reaction was then initiated with 10 μl of LDH from Rabbit Muscle (0.5 μg/ml; 1:2000 dilution of 1.0 mg/ml). After the enzyme was added, the solution was mixed for 20 seconds, and the reaction was run for 10 minutes. After a 50 second lag, the samples were read in a Cary spectrophotometer at 340 nm. Reading of the samples was continued until 300 seconds. Cuvette #1 contained the control reaction (no inhibitor), and cuvette #2 contained the positive control reaction in which Cibacron Blue at 10.3 μM was substituted for inhibitor to yield 50 to 70% inhibition. The substrate was kept at a level at least 10 times the Km.

[2] = biological target: T2, HMG CoA reductase (HMGCoAR) (UniProt P04035); experiment: HMGCoAR kinetic assay, spectrophotometric oxidation of NADPH at 340 nm; assay type: biochemical; conditions: Example 13 oxidoreductase panel (FIG. 7)
T2 sequence (P04035 1-888): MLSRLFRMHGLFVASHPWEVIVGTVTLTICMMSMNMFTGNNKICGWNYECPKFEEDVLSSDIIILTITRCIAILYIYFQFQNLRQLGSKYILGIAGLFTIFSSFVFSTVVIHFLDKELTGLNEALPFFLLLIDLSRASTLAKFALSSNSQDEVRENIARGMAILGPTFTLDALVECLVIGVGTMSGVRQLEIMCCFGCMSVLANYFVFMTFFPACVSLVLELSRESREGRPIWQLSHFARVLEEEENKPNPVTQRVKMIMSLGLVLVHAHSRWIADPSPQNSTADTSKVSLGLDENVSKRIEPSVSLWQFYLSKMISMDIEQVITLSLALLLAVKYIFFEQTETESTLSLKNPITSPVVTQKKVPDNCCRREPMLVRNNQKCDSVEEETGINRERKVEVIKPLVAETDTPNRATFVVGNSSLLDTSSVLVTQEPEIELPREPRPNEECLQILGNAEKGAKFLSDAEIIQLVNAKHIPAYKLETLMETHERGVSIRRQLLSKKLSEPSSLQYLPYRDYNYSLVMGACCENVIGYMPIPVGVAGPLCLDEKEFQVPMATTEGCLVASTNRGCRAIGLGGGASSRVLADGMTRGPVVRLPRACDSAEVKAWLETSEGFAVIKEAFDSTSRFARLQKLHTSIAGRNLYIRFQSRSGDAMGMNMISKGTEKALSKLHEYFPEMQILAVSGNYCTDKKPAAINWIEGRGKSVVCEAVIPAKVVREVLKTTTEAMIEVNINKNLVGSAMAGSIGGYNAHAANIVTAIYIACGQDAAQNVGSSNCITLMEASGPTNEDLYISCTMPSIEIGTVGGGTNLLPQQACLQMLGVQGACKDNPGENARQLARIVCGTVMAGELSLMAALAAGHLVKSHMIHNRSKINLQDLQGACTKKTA
Method: For HMGCoAR analysis, the compounds were screened using a kinetic protocol that spectrophotometrically evaluates oxidation of NADPH.
Stock solutions of each of the reagents were prepared in the following concentrations. Dilutions of the stock solutions were prepared prior to running the assay in the concentrations indicated below. The enzyme was diluted in 1 M NaCl. To prepare the dilution buffer, 10 μl of HMGCoAR (1 mg/ml) was mixed with 133 μl of 3 M NaCl solution and 257 μl of 25 mM KH2PO4 buffer (pH 7.5; containing 50 mM NaCl, […] EDTA (ethylenediaminetetraacetic acid), and 5 mM DTT (dithiothreitol).
The HMGCoAR reaction was monitored at 340 nm prior to and after addition of the inhibitor to detect background reaction with the inhibitor. Solutions of 100 μM of the inhibitors in DMSO were prepared to provide a final DMSO concentration of 2% of the total assay volume. These solutions were incubated for 6 minutes at 25° C. in a 994 μl of a solution containing 25 mM KH2PO4, pH 7.5, 160 μM HMGCoA, 13 μM NADPH, 50 mM NaCl, 1 mM EDTA, and 5 mM DTT. The reaction was then initiated with 5 μl of HMGCoAR enzyme (1:40 dilution of 0.65 mg/ml). After the enzyme was added, the solution was mixed for 20 seconds, and the reaction was run for 10 minutes. After a 50 second lag, the samples were read in a Cary spectrophotometer at 340 nm. Reading of the samples was continued until 300 seconds. […]

## O=C(O)c1ccc(-c2ccc(-c3nc4cc([N+](=O)[O-])ccc4[nH]3)o2)cc1 [compound 6d, 4-[5-(5-nitro-1H-benzoimidazol-2-yl)-furan-2-yl]-benzoic acid]
[1]
  IC50: 4.56 µM

## O=C(O)c1ccc(-c2ccc(-c3nc4ccccc4[nH]3)o2)cc1 [compound 6b, 4-[5-(1H-benzoimidazol-2-yl)-furan-2-yl] benzoic acid]
[2]
  IC50: 22 µM
